Data set [1] has as its target T1, Beta-secretase 1 (Homo sapiens, UniProt P56817). The conditions noted are these: 5 uM.
Data set [2] in a line: Permeability of the compound by PAMPA assay. It counts as physicochemical. Conditions: read-out: permeability. (In general: In PAMPA a lipid-coated filter parts donor from acceptor wells.)
Data set [3] concerns the target Amyloid-beta precursor protein (Homo sapiens) (UniProt P05067). The data set is described as follows: Inhibition of amyloid beta-42 (unknown origin) aggregation assessed as amyloid fibril formation at 10 uM after 24 hrs by thioflavin T fluorescence method.
Data set [4] addresses T1, Beta-secretase 1. The data set is described as follows: Inhibition of human recombinant BACE1 using methoxycoumarin-Ser-Glu-Val-Asn-Leu-Asp-Ala-Glu-Phe-Lys-dinitrophenyl as substrate preincubated for 1 hr by FRET assay.
The test system of data set [5] is Mus musculus. Put plainly: Antialzheimer activity in APP-PS1 transgenic 7 month old mouse hippocampus assessed as reduction of dodecamer of amyloid beta level at 2 mg/kg, ip administered 3 times in a week for 4 weeks by immunoblot analysis. On the set-up: dose 2 mg/kg. The class given is functional, organism-based. Background: A western blot detects proteins with antibodies after separation by electrophoresis.

The test system of data set [6] is Mus musculus. Put plainly: Antialzheimer activity in APP-PS1 transgenic 7 month old mouse hippocampus assessed as reduction of hexamers of amyloid beta level at 2 mg/kg, ip administered 3 times in a week for 4 weeks by immunoblot analysis. On the set-up: dose 2 mg/kg. The class given is functional, organism-based.
Data set [7] addresses Amyloid-beta precursor protein (Homo sapiens) (UniProt P05067). Put plainly: Inhibition of aggregation of amyloid beta-42 (unknown origin) expressed in Escherichia coli BL21 (DE3) assessed as amyloid fibril formation at 10 uM after 24 hrs by thioflavin S fluorescence method.
In data set [8] the target is Microtubule-associated protein tau (Homo sapiens) (UniProt P10636). Put plainly: Inhibition of aggregation of tau protein (unknown origin) expressed in Escherichia coli BL21 (DE3) assessed as amyloid fibril formation at 10 uM after 24 hrs by thioflavin S fluorescence method.
In data set [9] the test system is Hippocampus. Put plainly: Neuroprotective activity against amyloid beta-42-induced synaptic failure in C57bl6 mouse hippocampal slices assessed as increase of SYN protein level at 1 to 100 uM uM after 1 hr by Western blot analysis. It counts as functional, tissue-based.
For data set [10], the system named is Hippocampus. The data set is described as follows: Neuroprotective activity against amyloid beta-42-induced synaptic failure in C57bl6 mouse hippocampal slices assessed as increase of SYP protein level at 1 to 100 uM uM after 1 hr by Western blot analysis. It counts as functional, tissue-based.
Data set [11] relates to Mus musculus. The data set is described as follows: Antialzheimer activity in APP-PS1 transgenic 11 month old mouse hippocampus assessed as reduction of dodecamer of amyloid beta level at 2 mg/kg, ip administered 3 times in a week for 4 weeks by immunoblot analysis. It counts as functional, organism-based. On the set-up: dose 2 mg/kg.
The test system of data set [12] is Hippocampus. Put plainly: Neuroprotective activity against amyloid beta-42-induced synaptic failure in C57bl6 mouse hippocampal slices assessed as induction of long-term potentiation at 10 uM after 1 hr by electrophysiology assay relative to control. It counts as functional.
Data set [13] has as its system Hippocampus. The data set is described as follows: Neuroprotective activity against amyloid beta-42-induced synaptic failure in C57bl6 mouse hippocampal slices assessed as increase of PSD95 protein level at 1 to 100 uM uM after 1 hr by Western blot analysis. The class given is functional, tissue-based.
For data set [14], the system named is Hippocampus. The data set is described as follows: Neuroprotective activity against amyloid beta-42-induced synaptic failure in C57bl6 mouse hippocampal slices assessed as induction of field excitatory postsynaptic potential at 10 uM after 1 hr by electrophysiology assay relative to control. It counts as functional.
For data set [15], the system named is Hippocampus. Put plainly: Neuroprotective activity against amyloid beta-42-induced synaptic failure in C57bl6 mouse hippocampal slices assessed as increase of VGlut1 protein level at 1 to 100 uM uM after 1 hr by Western blot analysis. It counts as functional, tissue-based.
The subject of data set [16] is Hippocampus. Put plainly: Neuroprotective activity against amyloid beta-42-induced synaptic failure in C57bl6 mouse hippocampal slices assessed as increase of GluA2 protein level at 1 to 100 uM uM after 1 hr by Western blot analysis. The class given is functional, tissue-based.
Data set [17] deals with Mus musculus. Put plainly: Antialzheimer activity in APP-PS1 transgenic 11 month old mouse hippocampus assessed as reduction of hexamers of amyloid beta level at 2 mg/kg, ip administered 3 times in a week for 4 weeks by immunoblot analysis. It counts as functional, organism-based. Details: dose 2 mg/kg.
In data set [18] the test system is Hippocampus. Put plainly: Neuroprotective activity against amyloid beta-42-induced synaptic failure in C57bl6 mouse hippocampal slices assessed as increase of GluA2 protein level at 10 to 100 uM uM after 1 hr by Western blot analysis. It counts as functional, tissue-based.
Data set [19] deals with Hippocampus. The data set is described as follows: Neuroprotective activity against amyloid beta-42-induced synaptic failure in C57bl6 mouse hippocampal slices assessed as increase of PSD95 protein level at 10 to 100 uM uM after 1 hr by Western blot analysis. It counts as functional, tissue-based.
For a further data set, the target named is Cholinesterase (Homo sapiens, UniProt P06276). Put plainly: Inhibition of human serum BChE using butyrylthiocholine iodide as substrate preincubated for 20 mins by Ellman's method.
A further data set concerns the target Acetylcholinesterase (Homo sapiens, UniProt P22303).
The target of data set [20] is T1, Beta-secretase 1. The data set is described as follows: Inhibition of human recombinant BACE1 using methoxycoumarin-Ser-Glu-Val-Asn-Leu-Asp-Ala-Glu-Phe-Lys-dinitrophenyl as substrate at 1 uM preincubated for 1 hr by FRET assay.

SMILES strings stand for the structures. Active and inactive are the calls of the source. The calls are words filed in the database; no cut-off is given here.

Chain of Microtubule-associated protein tau (Homo sapiens) (P10636 whole entry): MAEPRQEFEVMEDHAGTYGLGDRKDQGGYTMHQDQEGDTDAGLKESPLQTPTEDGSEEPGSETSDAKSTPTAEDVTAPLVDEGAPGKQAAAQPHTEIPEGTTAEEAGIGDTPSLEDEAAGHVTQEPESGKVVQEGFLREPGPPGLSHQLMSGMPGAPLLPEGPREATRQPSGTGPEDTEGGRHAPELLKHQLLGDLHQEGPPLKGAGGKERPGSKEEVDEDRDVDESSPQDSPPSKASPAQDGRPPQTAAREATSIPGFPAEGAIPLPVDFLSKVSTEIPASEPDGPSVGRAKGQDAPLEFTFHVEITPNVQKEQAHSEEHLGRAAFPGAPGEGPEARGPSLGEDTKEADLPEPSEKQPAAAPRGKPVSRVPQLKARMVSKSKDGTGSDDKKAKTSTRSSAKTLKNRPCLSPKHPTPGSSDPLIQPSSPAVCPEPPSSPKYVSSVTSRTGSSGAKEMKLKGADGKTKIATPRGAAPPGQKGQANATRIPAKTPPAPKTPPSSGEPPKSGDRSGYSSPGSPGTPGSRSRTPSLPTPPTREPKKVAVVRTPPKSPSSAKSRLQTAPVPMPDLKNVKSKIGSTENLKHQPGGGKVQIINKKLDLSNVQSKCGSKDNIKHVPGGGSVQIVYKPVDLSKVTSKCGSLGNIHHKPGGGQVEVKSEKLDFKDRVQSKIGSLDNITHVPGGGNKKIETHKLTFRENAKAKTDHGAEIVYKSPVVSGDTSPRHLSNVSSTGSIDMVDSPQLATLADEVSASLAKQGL
T1 sequence (P56817 whole entry): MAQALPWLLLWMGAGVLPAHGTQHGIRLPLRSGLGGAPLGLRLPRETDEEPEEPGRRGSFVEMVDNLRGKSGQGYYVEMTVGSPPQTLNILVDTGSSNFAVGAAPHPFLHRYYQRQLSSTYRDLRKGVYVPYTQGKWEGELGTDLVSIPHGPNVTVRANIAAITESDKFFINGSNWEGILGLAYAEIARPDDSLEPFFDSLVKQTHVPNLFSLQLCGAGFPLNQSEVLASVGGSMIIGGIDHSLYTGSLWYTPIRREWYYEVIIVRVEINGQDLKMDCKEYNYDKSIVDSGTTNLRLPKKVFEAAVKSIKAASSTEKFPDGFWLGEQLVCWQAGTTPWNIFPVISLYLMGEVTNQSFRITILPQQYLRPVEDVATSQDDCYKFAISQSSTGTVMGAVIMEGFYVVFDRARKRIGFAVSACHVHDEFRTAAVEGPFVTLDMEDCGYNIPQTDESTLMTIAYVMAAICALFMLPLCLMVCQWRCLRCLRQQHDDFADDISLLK
Chain of Cholinesterase (P06276 whole entry): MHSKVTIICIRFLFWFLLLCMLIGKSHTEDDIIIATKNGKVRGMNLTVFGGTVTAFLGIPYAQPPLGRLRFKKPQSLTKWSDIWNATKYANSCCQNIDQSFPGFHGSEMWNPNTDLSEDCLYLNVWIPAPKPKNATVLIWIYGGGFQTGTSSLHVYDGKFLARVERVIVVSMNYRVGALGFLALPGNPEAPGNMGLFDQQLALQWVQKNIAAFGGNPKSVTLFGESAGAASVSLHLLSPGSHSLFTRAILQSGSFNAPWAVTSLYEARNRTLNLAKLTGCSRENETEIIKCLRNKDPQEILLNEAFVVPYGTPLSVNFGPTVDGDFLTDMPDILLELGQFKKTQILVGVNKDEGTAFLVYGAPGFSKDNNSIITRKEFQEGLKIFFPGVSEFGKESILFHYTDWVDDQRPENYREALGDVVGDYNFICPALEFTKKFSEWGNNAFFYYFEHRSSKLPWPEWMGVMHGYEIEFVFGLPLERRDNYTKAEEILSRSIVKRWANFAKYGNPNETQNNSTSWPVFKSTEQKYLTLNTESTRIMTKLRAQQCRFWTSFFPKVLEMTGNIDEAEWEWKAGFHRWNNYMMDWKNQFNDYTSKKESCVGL
Chain of Amyloid-beta precursor protein (Homo sapiens) (P05067 whole entry): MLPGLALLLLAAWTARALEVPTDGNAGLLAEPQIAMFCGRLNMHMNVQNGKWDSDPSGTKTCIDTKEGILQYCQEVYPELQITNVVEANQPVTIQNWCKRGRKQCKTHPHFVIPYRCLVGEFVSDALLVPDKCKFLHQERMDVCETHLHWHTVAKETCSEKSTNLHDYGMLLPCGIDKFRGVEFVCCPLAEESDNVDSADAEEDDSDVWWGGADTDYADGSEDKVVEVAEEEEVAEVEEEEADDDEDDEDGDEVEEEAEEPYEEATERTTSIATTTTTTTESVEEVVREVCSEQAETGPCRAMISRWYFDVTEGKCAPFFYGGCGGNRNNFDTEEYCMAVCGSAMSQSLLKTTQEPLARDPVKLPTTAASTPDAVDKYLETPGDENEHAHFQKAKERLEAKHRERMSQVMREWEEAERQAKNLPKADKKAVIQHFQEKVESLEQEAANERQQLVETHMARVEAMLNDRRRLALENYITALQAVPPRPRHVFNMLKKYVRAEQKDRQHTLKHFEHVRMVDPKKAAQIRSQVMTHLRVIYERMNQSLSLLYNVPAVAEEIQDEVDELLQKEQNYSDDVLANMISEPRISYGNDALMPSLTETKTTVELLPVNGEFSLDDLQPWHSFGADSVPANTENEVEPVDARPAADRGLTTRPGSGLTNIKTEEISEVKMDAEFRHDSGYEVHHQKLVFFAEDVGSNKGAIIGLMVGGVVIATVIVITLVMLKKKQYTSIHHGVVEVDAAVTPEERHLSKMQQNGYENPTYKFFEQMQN
Chain of Acetylcholinesterase (P22303 whole entry): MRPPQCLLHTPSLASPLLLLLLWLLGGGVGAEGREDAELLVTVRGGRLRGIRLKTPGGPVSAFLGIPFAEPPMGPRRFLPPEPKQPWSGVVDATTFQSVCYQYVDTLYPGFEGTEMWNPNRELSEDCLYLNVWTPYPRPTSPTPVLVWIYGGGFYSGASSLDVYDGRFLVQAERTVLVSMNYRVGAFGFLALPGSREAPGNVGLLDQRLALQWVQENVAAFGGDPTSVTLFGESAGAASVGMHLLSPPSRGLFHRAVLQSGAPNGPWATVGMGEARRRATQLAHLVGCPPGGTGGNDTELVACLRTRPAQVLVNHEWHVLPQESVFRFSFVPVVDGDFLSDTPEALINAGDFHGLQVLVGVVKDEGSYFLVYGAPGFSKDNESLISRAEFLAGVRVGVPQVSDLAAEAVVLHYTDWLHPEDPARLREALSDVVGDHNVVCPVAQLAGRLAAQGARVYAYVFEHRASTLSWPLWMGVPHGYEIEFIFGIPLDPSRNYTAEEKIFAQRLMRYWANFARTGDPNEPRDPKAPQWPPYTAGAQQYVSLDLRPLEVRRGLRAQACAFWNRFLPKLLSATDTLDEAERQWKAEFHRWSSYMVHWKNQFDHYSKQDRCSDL
Description for Acetylcholinesterase: Inhibition of human recombinant AChE using acetylthiocholine iodide as substrate preincubated for 20 mins by Ellman's method

Turning to `CC1=C[C@@H]2Cc3nc4cc(Cl)ccc4c(N)c3[C@H](C1)C2`, the inhibition (usually the relative decrease from the control value, in per cent) against Beta-secretase 1 [1] was determined as 14%; in data set [3], 11.5%. Besides, the Papp in data set [2] was 23.6 ×10⁻⁶ cm/s. Moreover, at Beta-secretase 1 [4] (read-out: IC50), the IC50 – broadly, the concentration at which inhibition is half-maximal – is > 5 µM.
As to `CC1=C[C@H]2Cc3nc4cc(Cl)ccc4c(N)c3[C@@H](C1)C2.Cl`, in data set [2], the Papp is 25.4 ×10⁻⁶ cm/s. Besides, the inhibition in [3] is 13.2%. Further, the IC50 at Beta-secretase 1 [4] (read-out: IC50) is > 5 µM.
Consider `CC1=C[C@H]2Cc3nc4cc(Cl)ccc4c(NCCCCCCCCCNC(=O)c4cc(O)c5c(c4)C(=O)c4cccc(O)c4C5=O)c3[C@@H](C1)C2.Cl`, for which the outcome in the data set with Mus musculus [5], in the data set with Mus musculus [6], in the data set on Hippocampus [9], with Mus musculus [11], in the data set with Hippocampus [13] and with Hippocampus [16] was Active. Besides, the inhibition turned out to be 58.6% in data set [7], 24.9% in data set [8] and 38.4% in data set [3]. Further, the outcome with Hippocampus [10] and in the data set on Hippocampus [15] was inactive. For the same compound, the Activity in the data set with Hippocampus [12] and in the data set with Hippocampus [14] was 200% in each case.
On to `CC1=C[C@@H]2Cc3nc4cc(Cl)ccc4c(NCCCCCCCCCNC(=O)c4cc(O)c5c(c4)C(=O)c4cccc(O)c4C5=O)c3[C@H](C1)C2`, for which the result in the data set on Mus musculus [5], in the data set on Mus musculus [6], in the data set on Mus musculus [11], in the data set on Hippocampus [18], with Hippocampus [19] and with Hippocampus [15] was Active. In addition, the inhibition amounted to 47.2% in data set [7], 34.3% in data set [8] and 43.2% in [3]. Besides, the outcome in the data set with Hippocampus [9], in the data set on Mus musculus [17], in the data set on Hippocampus [10], in the data set with Hippocampus [12] and with Hippocampus [14] was inactive.
With `CC1=CC2Cc3nc4cc(Cl)ccc4c(NCCCCCNC(=O)c4cc(O)c5c(c4)C(=O)c4cccc(O)c4C5=O)c3C(C1)C2.Cl` (racemic), the inhibition in data set [7] turned out to be 68%; in [8], 43.7%; in data set [3] it was 38.7%. Besides, the Papp in [2] turned out to be 20 ×10⁻⁶ cm/s. Moreover, the results for the IC50 at Cholinesterase and at Acetylcholinesterase were 0.95 µM and 0.00107 µM, respectively. Besides, the inhibition entry on Beta-secretase 1 [20] is “inactive”.
`CC1=CC2Cc3nc4cc(Cl)ccc4c(NCCCCCCNC(=O)c4cc(O)c5c(c4)C(=O)c4cccc(O)c4C5=O)c3C(C1)C2` (racemic): the inhibition came out at 68.4% in data set [7], 30.9% in data set [8] and 40.8% in data set [3]. The figures for the IC50 on Cholinesterase and at Acetylcholinesterase were 1.07 µM and 0.00152 µM, respectively. The inhibition result on Beta-secretase 1 [20] was “inactive”.
As for `CC1=CC2Cc3nc4cc(Cl)ccc4c(NCCCCCCCNC(=O)c4cc(O)c5c(c4)C(=O)c4cccc(O)c4C5=O)c3C(C1)C2.Cl` (racemic), the values for the inhibition in data set [7], in [8] and in data set [3] were 63.2%, 52% and 40.6%, respectively. The Papp in data set [2] is 27.5 ×10⁻⁶ cm/s. Moreover, the IC50 at Cholinesterase was 1.46 µM; on Acetylcholinesterase, 0.00318 µM. The inhibition result at Beta-secretase 1 [20] was “inactive”.
`CC1=CC2Cc3nc4cc(Cl)ccc4c(NCCCCCCCCNC(=O)c4cc(O)c5c(c4)C(=O)c4cccc(O)c4C5=O)c3C(C1)C2.Cl` (racemic): the inhibition in [7] is 50.2%; in [8], 29.2%; in [3] it was 33.1%. For the same compound, the Papp in data set [2] is 22.4 ×10⁻⁶ cm/s. The IC50 at Beta-secretase 1 [4] (read-out: IC50) is 0.98 µM.
As for `CC1=CC2Cc3nc4cc(Cl)ccc4c(NCCCCCCCCCNC(=O)c4cc(O)c5c(c4)C(=O)c4cccc(O)c4C5=O)c3C(C1)C2.Cl` (racemic), the values for the inhibition in data set [7], in data set [8] and in data set [3] were 47.9%, 29.6% and 38%, respectively. Also, the Papp in data set [2] worked out at 21.5 ×10⁻⁶ cm/s. For the same compound, the IC50 on Beta-secretase 1 [4] (read-out: IC50) is 0.12 µM.
For `CC1=CC2Cc3nc4cc(Cl)ccc4c(NCCCCCCCCCCNC(=O)c4cc(O)c5c(c4)C(=O)c4cccc(O)c4C5=O)c3C(C1)C2.Cl` (racemic) the same measures were 43.3%, 57.1%, 40.9%, 18.1 ×10⁻⁶ cm/s and 1.19 µM.
On to `CC1=CC2Cc3nc4cc(Cl)ccc4c(NCCCCCCCCCCCNC(=O)c4cc(O)c5c(c4)C(=O)c4cccc(O)c4C5=O)c3C(C1)C2.Cl` (racemic), for which the values for the inhibition in data set [7], in [8] and in data set [3] were 40.7%, 46.3% and 35.3%, respectively. For the same compound, the Papp in [2] worked out at 16.4 ×10⁻⁶ cm/s. Also, on Beta-secretase 1 [4] (read-out: IC50), the IC50 was 1.2 µM.
On the same counts, the results for `CC1=CC2Cc3nc4cc(Cl)ccc4c(NCc4ccc(CNC(=O)c5cc(O)c6c(c5)C(=O)c5cccc(O)c5C6=O)cc4)c3C(C1)C2.Cl` (racemic) are 57.9%, 23.1%, 32.4%, 16.3 ×10⁻⁶ cm/s and 2.02 µM.
For the compound `CC1=CC2Cc3nc4cc(Cl)ccc4c(N)c3C(C1)C2.Cl` (racemic), the inhibition entry in [7] and in data set [8] was “inactive” in each case.
`O=C(O)c1cc(O)c2c(c1)C(=O)c1cccc(O)c1C2=O` [RHEIN]: the inhibition in [7] was found to be 49.9%; in [8], 40.8%. Besides, the Papp in [2] was 2.7 ×10⁻⁶ cm/s. The IC50 result on Beta-secretase 1 [4] was “Not Active”; at Acetylcholinesterase, > 10 µM.

The record behind these values is ChEMBL document CHEMBL3232829, “Synthesis and multitarget biological profiling of a novel family of rhein derivatives as disease-modifying anti-Alzheimer agents” (J Med Chem, 2014).
